Reference: patent US20010044470A1, “METHOD TO CONTROL ANIMAL ECTO-PARASITES” (priority 1997, published 2001)
Several values for one entry are separate records, joined by “and”; a condition that tells them apart may be missing. Equal values may be shown once.

Tests used:
Assay type in all cases: in vivo
[1] = tested on: cat fleas (Ctenocephalides felis); test: Flea egg hatching after oral application to mouse (systemic control); details: mouse host, oral 20 mg/kg in corn oil; for adjusted percentage concerning the loss of hatchings (%) 5 days after: flea eggs retrieved 5 days after application; for adjusted percentage concerning the loss of hatchings (%) 14 days after: flea eggs retrieved 14 days after application; for adjusted percentage concerning the loss of hatchings (%) 30 days after: flea eggs retrieved 30 days after application
Procedure: By using an appropriate sonde for the mouse, oral application to the mouse was performed at the rate of about 10 mL of the composition per kilogram body weight of the mouse. The said mouse was then stabilized with a wire netting, and was placed in a plastic container (depth 15 cm×width 15 cm×height 60 cm). Thirty (10 male and 20 female) starved adult cat fleas (Ctenocephalides felis) were freed into the said plastic container and the produced f lea eggs were retrieved f ive days later. A suitable amount (about 60 eggs) was transferred to a plastic dish and, preserved under the conditions wherein the temperature was 26° C. and the humidity was at 90%. After 2 days of preservation, the hatching conditions were observed. Afterwards, the treated mouse was allowed to inhabit a standard pet cage with food and water. Ten days after the application, the mouse was stabilized, placed in a plastic container, and was exposed to cat fleas in the same way as stated above. The produced flea eggs were then retrieved 14 days after the application, preserved in the conditions stated above, and had the hatching conditions observed. Twenty-six days after the application, the mouse was stabilized, placed in a plastic container, and was exposed to cat fleas in the same way as stated above. The produced flea eggs were then retrieved 30 days after the application of the composition, preserved in the conditions stated above, and had the hatching conditions observed. The same procedure was repeated without the application of the composition. The percentages of hatching for applied mouse “T” and the percentage of hatching for non-applied mouse “C” were derived from the equation, respectively: T=(the amount of hatched eggs)÷(the amount of retrieved eggs)×100 C=(the amount of hatched eggs)÷(the amount of retrieved eggs)×100 The acquired values of “T” and “C” were used to determine the adjusted percentage concerning the loss of hatchings by employing equation 1. The acquired values of “T” and “C” were utilized in the following equation: The adjusted percentage concerning the loss of hatchings (%)=(C−T)÷C×100 to determine the adjusted percentage concerning the loss of hatchings (hereinafter, recited as APH). […] In other words, “APH” looks at the amount of eggs that were unable to hatch rather than the amount of eggs that were able to hatch.

[2] = tested on: cat fleas (Ctenocephalides felis); test: Flea egg hatching after oral application to cats (systemic control); details: cat host, oral 20 mg/kg in cat feed
Procedure: Seven days after infestation, the weights of two cats of were measured and Compound #1 was applied orally to each of said two cats in an amount of 20 mg per one kilogram of the weight of the cat by incorporating Compound #1 into cat feed and having the cat to eat it. After application, the cats were placed in said steel cages.
The flea eggs collected onto the removable bottom tray were retrieved 6 and 14 days after the date of application. About 60 eggs were chosen from each batch of retrieved eggs. They were transferred to a plastic dish and then preserved under the conditions wherein the temperature was 26° C. and the humidity was at 90%. After 5-7 days of preservation, the eggs were observed about hatching.
The same procedure was repeated with another two cats except that cat feed comprising no Compound #1 was applied.
The percentages of hatching for applied cats “T” and the percentage of hatching for non-applied cats “C” were derived from the equation, respectively:
(§1) T=(the amount of hatched eggs)÷(the amount of retrieved eggs)×100
(§2) C=(the amount of hatched eggs)÷(the amount of retrieved eggs)×100
(§3) The obtained values of “T” and “C” were then used to determine the APH by employing the equation 1 mentioned above Example 1.

[3] = tested on: cat fleas (Ctenocephalides felis); test: Flea egg hatching after oral application to dogs (systemic control); details: beagle dog host, oral 10 mg/kg in dog feed
Procedure: One day after infestation, the weights of three dogs were measured and Compound #1 was applied orally to each of said three dogs in an amount of 10 mg per one kilogram of the weight of the dog by incorporating Compound #1 into dog feed and having the dog to eat it. After application, the dogs were placed in said steel cages.
The flea eggs collected onto the removable bottom tray were retrieved 4 and 5 days after the application. About 60 eggs were chosen from each batch of retrieved eggs. They were transferred to a plastic dish and then preserved under the conditions wherein the temperature was 26° C. and the humidity was at 90%. After 5-7 days of preservation, the eggs were observed about hatching.
The same procedure was repeated with another three dogs except that dog feed comprising no Compound #1 was applied. The percentages of hatching for applied dogs “T” and the percentage of hatching for non-applied dogs “C” were derived from the equation, respectively:
as §1, §2, §3

O=C(NC(=O)c1c(F)cccc1F)Nc1ccc(OC(F)(F)C(F)C(F)(F)F)cc1F (stereo not drawn) [Compound #1, 1-(2,6-difluorobenzoyl)-3-[2-fluoro-4-(1,1,2,3,3,3-hexafluoropropoxy)phenyl]urea]
adjusted percentage concerning the loss of hatchings (%) 5 days after [1]: 100% | adjusted percentage concerning the loss of hatchings (%) 14 days after [1]: 100% | adjusted percentage concerning the loss of hatchings (%) 30 days after [1]: 93% | average APH after 6 days ([2]; flea eggs retrieved 6 days after application): 81.9% | average APH after 14 days ([2]; flea eggs retrieved 14 days after application, 20 mg/kg): 79.6% and 80% | average APH after 4 days ([3]; flea eggs retrieved 4 days after application): 86.5% | average APH after 5 days ([3]; flea eggs retrieved 5 days after application, 10 mg/kg): 76.6% and 77%

O=C(NC(=O)c1c(F)cccc1F)Nc1ccc(OC(F)(F)C(F)F)cc1 [Compound B, 1-(2,6-difluorobenzoyl)-3-[4-(1,1,2,2-tetrafluoroethoxy)phenyl]urea]
adjusted percentage concerning the loss of hatchings (%) 5 days after [1]: 83% | adjusted percentage concerning the loss of hatchings (%) 14 days after [1]: 0%

O=C(NC(=O)c1c(F)cccc1F)Nc1cccc(Oc2ncc(C(F)(F)F)cc2Cl)c1 [Compound C, 1-(2,6-difluorobenzoyl)-3-[3-(3-chloro-5-trifluoromethylpyridin-2-yloxy)phenyl]urea]
adjusted percentage concerning the loss of hatchings (%) 5 days after [1]: 96% | adjusted percentage concerning the loss of hatchings (%) 14 days after [1]: 77% | adjusted percentage concerning the loss of hatchings (%) 30 days after [1]: 11%
